Test results from patent US20130252983A1, “ACTIVATING PHOSPHORYLATION SITE ON GLUTAMINASE C” (CORNELL UNIVERSITY, priority 2010, published 2013).

Experiments:
[1] = tested on: GA activity of MDA-MB231 cells; test: GA activity in mitochondrial fractions of treated MDA-MB231 cells; format: cell-based, human; conditions: 10 μM, 48 hours
Experimental: 100%=620 moles of glutamine hydrolyzed per minute per mole of enzyme. Data represent the average of 3 experiments (±s.d.). […] Following precipitation of the beads and re-suspension, the samples were analyzed by Western blotting with anti-V5 antibody. […] Data represent the average of 3 experiments (±s.d.). […] Data represent the average of 3 experiments (±s.d.). […] Data represent the average of 3 experiments (±s.d.). FIG. 3E NIH 3T3 cells transiently expressing Dbl were assayed for focus formation in the presence of 10 μM 968 alone or together with 7 mM dimethyl α-ketoglutarate. […] 100%=680 nM glutamine hydrolyzed per minute per 10^5 cells. Data are the average of 3 experiments (±s.d.). […] 100%=750 nM glutamine hydrolyzed per minute per 10^5 cells. Data represent the average of 3 experiments (±s.d.).
Mitochondrial preparations were obtained using the mitochondria isolation kit from QIAGEN (Cat #37612). A suspension containing 2×10^7 cells was transferred into a 50 ml conical tube and centrifuged at 500×g for 10 minutes at 4° C. The pellets were resuspended in 2 ml of ice-cold lysis buffer (supplied by QIAGEN) and incubated for 10 minutes at 4° C. using an end-over-end shaker. […]

MDA-MB231 cells = test: Soft-agar colony formation, MDA-MB231; format: cell-based, human; conditions: 10 μM
Experimental: FIGS. 2A-G illustrate effects of 968 on the transforming activity of constitutively active Rho GTPases and human breast cancer cells. […] Cells were scored after 14 days and plotted as the percentage of the total number of colonies greater than 50 μm in diameter. Data represent the average of 3 experiments (±s.d.). […] Data represent the average of 3 experiments (±s.d.). […] Data represent the average of 3 experiments (±s.d.). […] After 24 hours at 37° C., the migratory cells were fixed, stained with GIEMSA, and counted. Data represent the average of 3 experiments (±s.d.). […] Data represent the average of 3 experiments (±s.d.). […] Data represent the average of 3 experiments (±s.d.). […] Data represent the average of 3 experiments (±s.d.).

GAC phosphorylation = biological target: T1, GAC phosphorylation (Mus musculus, UniProt D3Z7P3); test: 2-D gel analysis of V5-GAC phosphorylation states from treated Dbl cells; format: cell-based; conditions: 968 10 μM, 48 hours
T1 construct: expressed in transfected cells; host or cells: NIH 3T3 cells (stably expressing Dbl, or parental), transient transfection
T1 sequence (D3Z7P3 55-603 isoform D3Z7P3-2 limits assumed): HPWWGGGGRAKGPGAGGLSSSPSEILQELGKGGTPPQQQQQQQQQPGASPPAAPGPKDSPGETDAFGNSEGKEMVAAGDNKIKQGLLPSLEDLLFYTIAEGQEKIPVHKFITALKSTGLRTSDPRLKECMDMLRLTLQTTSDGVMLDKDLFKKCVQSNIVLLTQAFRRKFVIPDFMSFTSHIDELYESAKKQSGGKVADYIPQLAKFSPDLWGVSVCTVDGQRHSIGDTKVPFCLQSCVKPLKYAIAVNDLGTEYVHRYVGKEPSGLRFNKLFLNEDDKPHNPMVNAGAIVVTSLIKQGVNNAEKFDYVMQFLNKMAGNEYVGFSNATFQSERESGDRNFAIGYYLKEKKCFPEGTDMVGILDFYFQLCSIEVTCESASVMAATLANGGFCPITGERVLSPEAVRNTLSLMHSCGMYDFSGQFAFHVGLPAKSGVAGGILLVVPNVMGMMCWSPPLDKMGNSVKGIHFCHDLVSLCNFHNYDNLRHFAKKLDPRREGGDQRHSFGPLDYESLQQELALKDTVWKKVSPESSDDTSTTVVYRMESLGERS
Experimental: NIH 3T3 cells stably expressing the Dbl oncogene, were transiently transfected with DNA encoding a VS-tagged GAC, and then one sample was treated with 968 (10 μM) for 48 hours. The cells were then harvested and the ectopically expressed GAC was isolated by immunoprecipitation via the V5 tag. The samples were then subjected to 2-D gel analysis to separate the V5-GAC by charge and size, and the V5-tagged GAC was visualized by Western blotting using an anti-V5 antibody.
GAC runs distinctly on a 2D gel depending whether it is expressed in normal (untransformed) NIH 3T3 cells or in NIH 3T3 cells which are transformed by the Dbl oncogene. Specifically, there is one major species of GAC present in NIH 3T3 cells whereas in Dbl cells, two additional species of GAC appear which migrate with a more negative charge but at the same molecular mass as the original species (FIG. 21, first and second panels). […] Additionally, it has been shown that small molecules of the 968 family which are able to inhibit GAC in vivo do so by blocking the ability of GAC to become phosphorylated. Thus, it was of great interest to identify the amino acid(s) on GAC whose phosphorylation is causal in the activation of this enzyme.

[2] = tested on: NIH 3T3 cells stably expressing Cdc42(F28L) and transiently expressing mouse GAC; test: Focus formation of Cdc42(F28L) cells transiently expressing GAC; format: cell-based
From the text: FIGS. 4A-E illustrate the role of glutaminase C activity in cellular transformation. […] Data represent the average of 3 experiments (±s.d.). […] Data represent the average of 3 experiments (±s.d.). […] 100% represents the activity measured in untreated Dbl-transformed cells. The data represent the average of 2 experiments. […] 100% represents the activity measured in untreated SKBR3 cells. The data represent the average of 2 experiments. […] Data represent the average of 3 experiments (±s.d.).

## CN(C)c1ccc(C2Nc3ccc4ccccc4c3C3=C2C(=O)CC(C)(C)C3)cc1Br (stereo not shown) [Compound 968, 5-[3-bromo-4-(dimethylamino)phenyl]-2,2-dimethyl-2,3,5,6-tetrahydrobenzo[a]]
[1]
  basal GA activity: sensitive to 968
MDA-MB231 cells
  colony formation in soft agar: inhibits the ability
GAC phosphorylation
  phosphorylation state of GAC: significant reduction of at least one phosphorylation state of GAC
[2]
  focus-forming activity: can be blocked
